Data on three compounds can be found in patent US8426616B2, “Triptolide lactone ring derivatives as immunomodulators and anticancer agents” (priority 2004, dated 2013).

In data set [1] the test system is human T cell lymphoma (Jurkat) cells. To be noted: for cytotoxic activity (MTT assay, OD570): 24 h culture with compound; for cytotoxic activity (MTT assay), compound incubated in human serum: pre-incubation in human serum. The protocol:
Test compounds were dissolved in DMSO at a concentration of 20 mM. Further dilutions were done in RPMI1640 medium (GIBCO, Rockville, Md.) supplemented with 10% Fetal Calf Serum (HyClone Laboratories, Logan, Utah).
Cytotoxicity of the compounds was determined in a standard MTT assay using Cell Proliferation Kit I (#1 465 007, Roche Diagnostics, Mannheim, Germany). Briefly, human T cell lymphoma (Jurkat) cells (4×10^5 per well) were cultured for 24 h, in 96-well tissue culture plates, in the presence of serial three-fold dilutions of test compounds or medium containing the same concentration of DMSO as in the test samples at each dilution point. The cultures were then supplemented with 10 μl/well MTT reagent for 4 h and then with 0.1 ml/well solubilizing reagent for an additional 16 h. Optical density at 570 nm (OD570) was measured on a ThermoScan microplate reader (Molecular Devices, Menlo Park, Calif.).
The data is presented as OD570 values versus concentration of the compounds. In this case, data is provided for both compounds incubated in human serum and in mouse serum, and for PG796 without incubation.
In general terms: Formazan colour is commonly taken as a measure of viable cells.

Data set [2] relates to IL-2 production in Jurkat cells. Format: cell-based, human. Particulars: for inhibition of IL-2 production: Jurkat cells stimulated with anti-CD3 and PMA, 24 h; for inhibition of IL-2 production, compound incubated in human serum: pre-incubation in human serum. The protocol: Test samples were diluted to 1 mM in complete tissue culture medium. […] Cells from an exponentially expanding culture of Jurkat human T cell line (#TIB-152 obtained from American Type Culture Collection, Manassas, Va.) were harvested, washed once by centrifugation, re-suspended in complete tissue culture medium, and diluted to a concentration of 2×10^6 cells/ml. A volume of 50 μl of Jurkat cells (1×10^5 cells) was added to wells containing 100 μl of the diluted compounds, 50 μl of PMA (10 ng/ml) was added to each well, and the plates were incubated at 37° C. in a 5% CO2 incubator. After 24 hours, the plates were centrifuged to pellet the cells, 150 μl of supernatant was removed from each well, and the samples were stored at −20° C. The stored supernatants were analyzed for human IL-2 concentration using the Luminex 100 (Luminex Corporation, Austin, Tex.), Luminex microspheres coupled with anti-IL-2 capture antibody, and fluorochrome-coupled anti-IL-2 detection antibody. The data were expressed as pg/ml of IL-2.
The data were plotted as the concentration of compound versus IL-2 concentration. In this case, data is provided for both compounds incubated in human serum and in mouse serum, and for PG796 without incubation.

The structures appear in SMILES notation. “Also recorded” adds a separate entry of the source.

For the compound `CC1OC(=O)C2=C1[C@@H]1C[C@@H]3O[C@@]34[C@H](O)[C@@]3(C(C)C)O[C@H]3[C@@H]3O[C@@]34[C@@]1(C)CC2` (stereo partly drawn) [PG795, 19-methyl triptolide], the “cytotoxic activity (MTT assay, OD570)” value in data set [1] was “cytotoxic to Jurkat cells; also recorded: significant activity; also recorded: less active than triptolide”. Also, the “inhibition of IL-2 production” value in data set [2] is reported as “significant activity; also recorded: less active than triptolide; also recorded: inhibited IL-2 production”.
For the compound `CC(C)[C@]12O[C@H]1[C@@H]1O[C@]13[C@]1(O[C@H]1C[C@H]1C4=C(CC[C@@]13C)C(=O)OC4)[C@@H]2OC(=O)CCC(=O)O` [triptolide 14-succinate, reference compound], the “cytotoxic activity (MTT assay), compound incubated in human serum” value in data set [1] was “much less active in these assays than triptolide 14-succinate incubated in mouse serum”. For the same compound, in data set [2] (Jurkat cells), the “inhibition of IL-2 production, compound incubated in human serum” value is “much less active in these assays than triptolide 14-succinate incubated in mouse serum”.
For `CC(C)[C@]12O[C@H]1[C@@H]1O[C@]13[C@]1(O[C@H]1C[C@H]1c4c(C(=O)c5ccccc5)oc(OC(=O)c5ccccc5)c4CC[C@@]13C)[C@@H]2O` [PG796, 18-deoxo-19-dehydro-18-benzoyloxy-19-benzoyl triptolide], in data set [1], the “cytotoxic activity (MTT assay, OD570)” value was “cytotoxic to Jurkat cells; also recorded: higher level of activity in both assays than the known prodrug, triptolide 14-succinate”; the “cytotoxic activity (MTT assay), compound incubated in human serum” value was “high, and essentially equivalent, activity”. The “cytotoxic activity (MTT assay), compound incubated in mouse serum” value in data set [1] (pre-incubation in mouse serum) is “high, and essentially equivalent, activity”. Further, the “cytotoxic activity (MTT assay), compound unincubated” value in data set [1] (without serum incubation, compared with serum-incubated compound) is “nearly equivalent activity”. Moreover, in data set [2], the “inhibition of IL-2 production” value is reported as “higher level of activity in both assays than the known prodrug, triptolide 14-succinate; also recorded: inhibited IL-2 production”. Also, the “inhibition of IL-2 production, compound incubated in human serum” value in data set [2] (Jurkat cells) is “high, and essentially equivalent, activity”. In data set [2] (Jurkat cells, pre-incubation in mouse serum), the “inhibition of IL-2 production, compound incubated in mouse serum” value is “high, and essentially equivalent, activity”. In addition, the “inhibition of IL-2 production, compound unincubated” value in data set [2] (Jurkat cells, without serum incubation, compared with serum-incubated compound) is given as “nearly equivalent activity”.
